Data published in patent US7820701B2, “Amorphous lercanidipine hydrochloride and uses thereof” (Recordati Ireland Limited, priority 2005, dated 2010).
Counter-ions that a name gives are not always drawn.

assay: Aqueous solubility of amorphous vs crystalline lercanidipine hydrochloride; type: physicochemical; conditions: water, stirring at 27-28° C. for 24 hr, filtered, HPLC
Experimental: The aqueous solubility of amorphous lercanidipine hydrochloride, was compared to the solubility of crystalline lercanidipine hydrochloride. The solubility of the respective samples was determined by suspending 20-30 mg of sample test was in 10 mL water and stirring at 27-28° C. for 24 hr. The sample was then filtered through a PVDF filter (0.2 micron) and the solution diluted with acetonitrile and analyzed by HPLC.

| Structure (SMILES) | SOLUBILITY |
| --- | --- |
| COC(=O)C1=C(C)NC(C)=C(C(=O)OC(C)(C)CN(C)CCC(c2ccccc2)c2ccccc2)C1c1cccc([N+](=O)[O-])c1 (stereo not drawn) [Amorphous lercanidipine HCl (Example 1), methyl 1,1,N-trimethyl-N-(3,3-diphenylpropyl)-2-aminoethyl 1,4-dihydro-2,6-dimethyl-4-(3-nitrophenyl)pyridine-3,5-dicarboxylate] | 1.5 mg/L |
| COC(=O)C1=C(C)NC(C)=C(C(=O)OC(C)(C)CN(C)CCC(c2ccccc2)c2ccccc2)C1c1cccc([N+](=O)[O-])c1 (stereo not drawn) [Amorphous lercanidipine HCl (Example 2), methyl 1,1,N-trimethyl-N-(3,3-diphenylpropyl)-2-aminoethyl 1,4-dihydro-2,6-dimethyl-4-(3-nitrophenyl)pyridine-3,5-dicarboxylate] | 1.5 mg/L |
| COC(=O)C1=C(C)NC(C)=C(C(=O)OC(C)(C)CN(C)CCC(c2ccccc2)c2ccccc2)C1c1cccc([N+](=O)[O-])c1 (stereo not drawn) [Crystalline lercanidipine HCl (Form I), methyl 1,1,N-trimethyl-N-(3,3-diphenylpropyl)-2-aminoethyl 1,4-dihydro-2,6-dimethyl-4-(3-nitrophenyl)pyridine-3,5-dicarboxylate, reference compound] | 0.65 mg/L |
